32 sequences from the supplement of paper PMC11208160 can be followed below.
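Note: IS621 recombinase and bridge RNA in Escherichia coli cells.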

This series can be described thus: recombinant barcode read abundance after kanamycin selection (control-corrected) (log10(CPM+1)); higher = more efficient recombination; sequences stand for … in AGTGCAGAGAAAATCGGCCAGTTTTCTCTGCCTGCAGTCCGCATGCCGT…AGATTTATGCAGCGGACTGCCTTTCTCCCAAAGTGATAAACCGGACAGTATCATGGACCGGTTTTCCCGGTAATCCGTATTTGCAAGGTTGGTTTCACT; site = the 11-nt target. The procedure, abridged:
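The screen was pooled in E. coli and paired targets with IS621 bridge RNA target-binding loops. Recombination efficiency is taken from barcode counts per million at recombinant junctions, averaged and adjusted against the control. Values, in the form log10(CPM+1), come from duplicate plating on chloramphenicol/ampicillin LB agar or on chloramphenicol/ampicillin/kanamycin with 0.1 mM IPTG.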
Consider “ATAAGTCCTTGGGTTCTAACCTGTTGCGA (site ACAAGTCCTCC)”, for which the “recombinant barcode read abundance (log10)” value was determined as 0.869.

With “ATAAGTCCTTGGGTTCTAACCTGTTGCGA (site ATAAGTCCTTC)”, the “recombinant barcode read abundance (log10)” value stood at 2.14.

For “ATAATACCTTGGGTTCTAACCTGTTGCCT (site ACAATACCTAG)”, the “recombinant barcode read abundance (log10)” value came out at 0.135.

Consider “ATAATACCTTGGGTTCTAACCTGTTGCCT (site ATAATACCTAG)”, for which the “recombinant barcode read abundance (log10)” value was 1.4.

For “ATAATAGCTTGGGTTCTAACCTGTTGCCT (site ATAAAAGCTAG)”, the “recombinant barcode read abundance (log10)” value worked out at 0.0804.

As to “ATAATAGCTTGGGTTCTAACCTGTTGCCT (site ATAACAGCTAG)”, the “recombinant barcode read abundance (log10)” value stood at 0.0342.

Regarding “ATAATAGCTTGGGTTCTAACCTGTTGCCT (site ATAAGAGCTAG)”, the “recombinant barcode read abundance (log10)” value came out at 0.0465.

As for “ATAATAGCTTGGGTTCTAACCTGTTGCCT (site ATAATAGCTAG)”, the “recombinant barcode read abundance (log10)” value was 1.63.

Consider “ATACCACCTTGGGTTCTAACCTGTTGCCT (site AAACCACCTAG)”, for which the “recombinant barcode read abundance (log10)” value worked out at 0.278.

As for “ATACCACCTTGGGTTCTAACCTGTTGCCT (site ACACCACCTAG)”, the “recombinant barcode read abundance (log10)” value was determined as 1.24.

As to “ATACCACCTTGGGTTCTAACCTGTTGCCT (site AGACCACCTAG)”, the “recombinant barcode read abundance (log10)” value was determined as 0.431.

In the case of “ATACCACCTTGGGTTCTAACCTGTTGCCT (site ATACCACCTAG)”, the “recombinant barcode read abundance (log10)” value was determined as 1.77.

Regarding “ATACCTCCTTGGGTTCTAACCTGTTGCCT (site ATACCTCCTAG)”, the “recombinant barcode read abundance (log10)” value amounted to 1.69.

In the case of “ATACCTCCTTGGGTTCTAACCTGTTGCCT (site CTAACTCCTAG)”, the “recombinant barcode read abundance (log10)” value is 0.148.

For “ATACGTCCTTGGGTTCTAACCTGTTGCAT (site AGACGTCCTAC)”, the “recombinant barcode read abundance (log10)” value worked out at 0.224.

Turning to “ATACGTCCTTGGGTTCTAACCTGTTGCAT (site ATACGTCCTAT)”, the “recombinant barcode read abundance (log10)” value was 1.12.

“ATAGCCACTTGGGTTCTAACCTGTTGCCT (site ATAGCAACTAG)”: the “recombinant barcode read abundance (log10)” value was 0.141.

With “ATAGCCACTTGGGTTCTAACCTGTTGCCT (site ATAGCCACTAG)”, the “recombinant barcode read abundance (log10)” value was 1.02.

As to “ATAGCCACTTGGGTTCTAACCTGTTGCCT (site ATAGCGACTAG)”, the “recombinant barcode read abundance (log10)” value came to 0.0246.

On to “ATAGCCACTTGGGTTCTAACCTGTTGCCT (site ATAGCTACTAG)”, for which the “recombinant barcode read abundance (log10)” value was 0.0679.

As to “ATAGCGACTTGGGTTCTAACCTGTTGCCT (site ATAGCAACTAG)”, the “recombinant barcode read abundance (log10)” value worked out at 1.18.

Consider “ATAGCGACTTGGGTTCTAACCTGTTGCCT (site ATAGCCACTAG)”, for which the “recombinant barcode read abundance (log10)” value was 0.13.

Consider “ATAGCGACTTGGGTTCTAACCTGTTGCCT (site ATAGCGACTAG)”, for which the “recombinant barcode read abundance (log10)” value was 1.54.

As for “ATAGCGACTTGGGTTCTAACCTGTTGCCT (site ATAGCTACTAG)”, the “recombinant barcode read abundance (log10)” value was 0.

For “ATAGGAACTTGGGTTCTAACCTGTTGCCT (site ATAGGAACTAG)”, the “recombinant barcode read abundance (log10)” value was determined as 1.4.

In the case of “ATAGGAACTTGGGTTCTAACCTGTTGCCT (site ATGGGCACTAG)”, the “recombinant barcode read abundance (log10)” value is 0.0276.

Take “ATAGGACCTTGGGTTCTAACCTGTTGCAG (site ATAGGACCTCT)”: the “recombinant barcode read abundance (log10)” value turned out to be 2.75.

For the sequence “ATAGGACCTTGGGTTCTAACCTGTTGCAG (site ATATGTCCTCT)”, the “recombinant barcode read abundance (log10)” value came to 0.328.

Regarding “ATAGGACCTTGGGTTCTAACCTGTTGCCA (site ATAGGACCTCG)”, the “recombinant barcode read abundance (log10)” value turned out to be 0.653.

For the sequence “ATAGGACCTTGGGTTCTAACCTGTTGCCA (site ATAGGACCTTG)”, the “recombinant barcode read abundance (log10)” value came out at 1.57.

Regarding “ATAGGGACTTGGGTTCTAACCTGTTGCCT (site ATAGGGACTAG)”, the “recombinant barcode read abundance (log10)” value is 2.31.

On to “ATAGGGACTTGGGTTCTAACCTGTTGCCT (site GTAGCGACTAG)”, for which the “recombinant barcode read abundance (log10)” value amounted to 0.177.
